{"source": "patent US5254584A", "about": "“N-acetonylbenzamides and their use as fungicides” (Rohm and Haas Company, priority 1992, dated 1993)", "key": {"Plasmopara viticola [1]": {"test_system": "Plasmopara viticola", "experiment": "Downy Mildew of Grapes--Curative (GDC)", "settings": "in vivo"}, "Fusarium roseum": {"test_system": "Fusarium roseum", "experiment": "microbe, parasite or virus in culture", "assay_type": "cell-based", "settings": "Fusarium sambucinum, 72 h, read-out: FUS percent inhibition of fungal growth"}, "Plasmopara viticola [2]": {"test_system": "Plasmopara viticola", "experiment": "Downy Mildew of Grapes (GDM)", "assay_type": "in vivo", "settings": "300 g/Ha; 7-8 days; grape"}, "[3]": {"test_system": "Erysiphe graminis (f. sp. tritici)", "experiment": "Wheat Powdery Mildew (WPM)", "assay_type": "in vivo", "settings": "300 g/Ha; 8 to 10 days after inoculation; Pennol wheat", "procedure": "Wheat Powdery Mildew (WPM) Erysiphe graminis (f. sp. tritici) was cultured on Pennol wheat seedlings in a controlled temperature room at 65° F. to 75° F. Mildew spores were shaken from the culture plants onto Pennol wheat seedlings which had been sprayed previously with the fungicide compound. The inoculated seedlings were kept in a controlled temperature room at 65° F. to 75° F. and subirrigated. […] The fungicidal activity of compound of Example 12 against the above discussed phytopathogenic fungi is set forth in Table 5 as percent disease control at an application rate of 300 g/Ha."}, "[4]": {"test_system": "Colletotrichum lagenarium", "experiment": "microbe, parasite or virus in culture", "assay_type": "cell-based", "settings": "Colletotrichum orbiculare, 72 h, 3 days at room temperature, read-out: COL percent inhibition of fungal growth"}, "Botrytis cinerea [5]": {"test_system": "Botrytis cinerea", "experiment": "microbe, parasite or virus in culture", "assay_type": "cell-based", "settings": "72 h, 3 days at room temperature, read-out: BOC percent inhibition of fungal growth"}, "tomato plants": {"test_system": "tomato plants", "experiment": "In vivo phytotoxic activity, foliar spray, tomato", "set-up": "key: +: indicating presence of a plant growth regulatory effect as compared to a control to which a solvent mixture (acetone/water/methanol) lacking the test compound was applied; 0: A zero indicates no apparent effect", "settings": "foliar spray 2200 g/Ha, seven days after application", "procedure": "(§1) The compounds of Examples 1 and 12 were tested in vivo for phytotoxic activity by applying the compounds to the foliage of cucumber, tomato, bean, lettuce and strawberry plants as a spray at a rate of 2200 g/Ha. The plants were evaluated seven days after spray application of the compounds.\n(§2) Phototoxicity scores are set forth below in Table 6. The phytotoxicity scores use a symbol, \"+\", indicating presence of a plant growth regulatory effect as compared to a control to which a solvent mixture (acetone/water/methanol) lacking the test compound was applied. A zero indicates no apparent effect. Each score is a composite representing the mode value for three replicate plants."}, "lettuce plants": {"test_system": "lettuce plants", "experiment": "In vivo phytotoxic activity, foliar spray, lettuce", "set-up": "key: +: indicating presence of a plant growth regulatory effect as compared to a control to which a solvent mixture (acetone/water/methanol) lacking the test compound was applied; 0: A zero indicates no apparent effect", "settings": "foliar spray 2200 g/Ha, seven days after application", "procedure": "as §1, §2"}, "Botrytis cinerea [6]": {"test_system": "Botrytis cinerea", "experiment": "Botrytis Gray Mold on Tomato (BOT)", "assay_type": "in vivo", "settings": "300 g/Ha, 5-7 days"}, "Phytophthora infestans [7]": {"test_system": "Phytophthora infestans", "assay_type": "in vivo", "settings": "300 g/Ha; 6 days after inoculation; tomato"}, "Pythium ultimum": {"test_system": "Pythium ultimum", "experiment": "microbe, parasite or virus in culture", "assay_type": "cell-based", "settings": "Globisporangium ultimum, 72 h, 3 days at room temperature, read-out: PYU percent inhibition of fungal growth"}, "Cercospora beticola": {"test_system": "Cercospora beticola", "experiment": "microbe, parasite or virus in culture", "assay_type": "cell-based", "settings": "72 h, 3 days at room temperature, read-out: CER percent inhibition of fungal growth"}, "[8]": {"test_system": "Pseudoperonospora cubensis", "experiment": "Cucumber Downy Mildew (CDM)", "settings": "in vivo"}, "Phytophthora infestans [9]": {"test_system": "Phytophthora infestans", "assay_type": "in vivo", "settings": "300 g/Ha; applied two days after inoculation (curative); tomato"}, "[10]": {"experiment": "Tobacco root assay for phytotoxicity (in vitro root elongation)", "settings": "7 days, 27° C., read-out: Tob. EC50", "procedure": "The compounds of Examples 1-20 were tested in vitro for fungicidal activity and phytotoxicity.\nB. The compounds were tested in vitro for phytotoxicity in a tobacco root elongation assay.\nTobacco root assay for Phytotoxicity:\nA dilution series of test compound was prepared in dimethylsulfoxide and 20 ul of each dilution was added to 20 ml of molten nutrient medium, consisting of Murashige and Skoog salt base, 2% sucrose and 1% agar, to give the desired concentrations of test compound. The mixtures were poured immediately into 9 cm diameter petri dishes. Surface-sterilized tobacco seeds were placed on each plate (20 seeds per plate) and the plates incubated in a vertical position in a 27° C. incubator with a 16 hour photoperiod. After 7 days the mean root lengths were calculated, and EC50 values determined from dose response curves.\nResults of the tobacco root assay are set forth below in Table 3 as Tob. EC50 (ppm)."}, "Phytophthora capsici": {"test_system": "Phytophthora capsici", "experiment": "microbe, parasite or virus in culture", "assay_type": "cell-based", "settings": "72 h, 3 days at room temperature, read-out: PHY percent inhibition of fungal growth"}, "Botrytis cinerea [11]": {"test_system": "Botrytis cinerea", "experiment": "Fungitoxicity assay against Botrytis cinerea (in vitro, colony diameter)", "assay_type": "cell-based", "settings": "48 hours at 25° C., read-out: Botrytis EC50", "procedure": "The compounds of Examples 1-20 were tested in vitro for fungicidal activity and phytotoxicity. A. The compounds were tested in vitro for fungicidal activity against Pythium ultimum, Botrytis cinerea and Venturia inaequalis. Fungitoxicity assay against Botrytis cinerea: […] The mixtures were poured immediately into 9 centimeter (cm) diameter petri dishes. Two replicate plates were used for each treatment. Each plate was inoculated with a 7 mm diameter plug taken from the growing edge of a 5 day old culture of B. cinerea on potato dextrose agar. […] Results of the testing for fungicidal activity against the above named fungi are set forth below in Table 3 as Pythium EC50 (ppm), Botrytis EC50 (ppm) and Venturia MIC (ppm), respectively."}, "Piricularia oryzae": {"test_system": "Piricularia oryzae", "assay_type": "in vivo", "settings": "300 g/Ha; seven to eight days after inoculation; Nato rice"}, "Rhizoctonia solani": {"test_system": "Rhizoctonia solani", "experiment": "microbe, parasite or virus in culture", "assay_type": "cell-based", "settings": "72 h, 3 days at room temperature, read-out: RHI percent inhibition of fungal growth"}}}
{"compound": "CCC(C)(NC(=O)c1cc(C)cc(C=NOC)c1)C(=O)CCl", "note": "(stereo not shown) [Example 12, N-[3'-(1'-chloro-3'-methyl-2'-oxopentan)]-3-methoxyiminomethyl-5-methylbenzamide]", "values": [{"measurement": "GDC percent disease control", "setting": "Plasmopara viticola [1]", "value": 50, "unit": "%"}, {"measurement": "inhibition at 25 ppm", "setting": "Fusarium roseum", "value": 0, "unit": "%"}, {"measurement": "GDM percent disease control", "setting": "Plasmopara viticola [2]", "value": 100, "unit": "%"}, {"measurement": "WPM percent disease control", "setting": "[3]", "value": 75, "unit": "%"}, {"measurement": "inhibition at 25 ppm", "setting": "[4]", "value": 100, "unit": "%"}, {"measurement": "inhibition at 25 ppm", "setting": "Botrytis cinerea [5]", "value": 100, "unit": "%"}, {"measurement": "phytotoxicity score, Tomato", "setting": "tomato plants", "value": 0}, {"measurement": "phytotoxicity score, Lettuce", "setting": "lettuce plants", "value": 0}, {"measurement": "BOT percent disease control", "setting": "Botrytis cinerea [6]", "value": 100, "unit": "%"}, {"measurement": "TLB percent disease control", "setting": "Phytophthora infestans [7]", "value": 100, "unit": "%"}, {"measurement": "inhibition at 25 ppm", "setting": "Pythium ultimum", "value": 100, "unit": "%"}, {"measurement": "inhibition at 25 ppm", "setting": "Cercospora beticola", "value": 100, "unit": "%"}, {"measurement": "CDM percent disease control", "setting": "[8]", "value": 99, "unit": "%"}, {"measurement": "TLC percent disease control", "setting": "Phytophthora infestans [9]", "value": 99, "unit": "%"}, {"measurement": "IC50 at 168 h", "setting": "[10]", "value": 0.38, "unit": "µg/mL"}, {"measurement": "inhibition at 25 ppm", "setting": "Phytophthora capsici", "value": 100, "unit": "%"}, {"measurement": "IC50", "setting": "Botrytis cinerea [11]", "value": 0.28, "unit": "µg/mL"}, {"measurement": "RB percent disease control", "setting": "Piricularia oryzae", "value": 75, "unit": "%"}, {"measurement": "inhibition at 25 ppm", "setting": "Rhizoctonia solani", "value": 0, "unit": "%"}]}
